This is an account of results in patent publication US11084824B2, “Pyrazolopyrimidine derivatives, preparation method thereof, and pharmaceutical composition for use in preventing or treating cancer, autoimmune disease and brain disease containing the same as an active ingredient” (Korea Research Institute of Chemical Technology, priority 2017, dated 2021).

Assay [1] has as its target Bruton's tyrosine kinase (BTK) (Homo sapiens (Human), UniProt Q06187). The assay is described as follows: BTK enzyme inhibition assay (Cisbio HTRF kit). It is filed as biochemical. Particulars: 30 minutes reaction, fluorescence 665 nm/620 nm. The procedure:
BTK enzyme evaluation with each compound of examples of the invention was performed by using BTK enzyme inhibition diagnosis kit (Cisbio, Codolet, France). […] Then, EDTA (ethylenediaminetetraacetic acid) was added thereto in order to terminate the reaction. At this time, the EDTA solution contained curopium-containing antibody (antiphosphoresidue antibody) and straptavidin-XL665 (SA-XL665, Cisbio). After incubation for 1 hour, fluorescence was measured. The emission values of 665 nm and 620 nm excited at 337 nm were measured with Envision reader. IC50 values were determined using GraphPad prism (version 5). Herein, the curve indicates a nonlinear regression model, which was determined by logarithmic functions and reaction values.
For orientation: TR-FRET usually uses a lanthanide donor and a delayed reading to cut background.

Assay [2] concerns TMD8 cells. As to the kind of experiment: TMD8 cell growth inhibition (WST-1, 72 hours). It is filed as cell-based. As to conditions: Homo sapiens, TMD8 ABC type DLBCL cell line, WST-1, absorbance 450 nm. How it is done: TDM-8 cells, the ABC (activated B-cell) type DLBCL (diffuse large B cell lymphoma) cell line sensitive to BTK signaling, were seeded in a 96-well plate at 30% confluency. Then, the compounds of the invention were treated thereto at different concentrations. 72 hours later, WST-1 reagent was added thereto. One hour later, absorbance was measured at 450 nm by using a spectramax spectrophotometer.

Chain of Bruton's tyrosine kinase (BTK) (Q06187 whole entry): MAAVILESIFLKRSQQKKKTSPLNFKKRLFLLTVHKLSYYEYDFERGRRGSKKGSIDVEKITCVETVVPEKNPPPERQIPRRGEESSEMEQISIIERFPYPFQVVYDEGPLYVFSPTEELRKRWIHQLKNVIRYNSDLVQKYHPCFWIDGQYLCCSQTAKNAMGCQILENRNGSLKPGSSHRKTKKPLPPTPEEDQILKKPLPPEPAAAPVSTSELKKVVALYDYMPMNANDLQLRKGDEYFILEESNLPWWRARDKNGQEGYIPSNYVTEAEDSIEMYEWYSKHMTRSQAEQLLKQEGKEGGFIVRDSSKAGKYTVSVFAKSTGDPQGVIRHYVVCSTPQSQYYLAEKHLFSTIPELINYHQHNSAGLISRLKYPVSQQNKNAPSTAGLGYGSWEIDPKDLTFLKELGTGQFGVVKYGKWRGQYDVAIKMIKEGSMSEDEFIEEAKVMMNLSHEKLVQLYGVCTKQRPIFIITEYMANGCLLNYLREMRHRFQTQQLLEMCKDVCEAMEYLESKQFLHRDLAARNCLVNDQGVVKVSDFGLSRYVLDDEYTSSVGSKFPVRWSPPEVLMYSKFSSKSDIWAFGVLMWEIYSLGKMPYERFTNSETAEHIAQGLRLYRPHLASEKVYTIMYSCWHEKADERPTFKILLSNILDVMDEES

As for `Cc1cccc(C)c1Nc1nn(C)c2nc(Nc3ccc(C4CCNCC4)cc3)ncc12` [Comparative Example 1, N^3-(2,6-dimethylphenyl)-1-methyl-N^6-(4-(piperidine-4-yl)phenyl)-1H-pyrazolo[3,4-d]pyrimidine-3,6-diamine, reference compound], the IC50 – broadly, the concentration needed to halve the response being measured – in assay [1] amounted to 10 nM.
On the same count and under the same terms, with `CC(=O)N1CCC(c2ccc(Nc3ncc4c(Nc5c(C)cccc5C)nn(C)c4n3)cc2)CC1` [Comparative Example 2, 1-(4-(4-(3-(2,6-dimethylphenylamino)-1-methyl-1H-pyrazolo[3,4-d]pyrimidine-6-ylamino)phenyl)piperidine-1-yl)ethaneone, reference compound] the figure was 20 nM.
As to `Cn1nc(Nc2c(Cl)cccc2Cl)c2cnc(Nc3ccc4c(c3)CN(C(=O)C(F)(F)F)CC4)nc21` [Example 11, 1-(7-(3-(2,6-dichlorophenylamino)-1-methyl-1H-pyrazolo[3,4-d]pyrimidine-6-ylamino)-3,4-dihydroisoquinoline-2(1H)-yl)-2,2,2-trifluoroethaneone], the half-maximal inhibitory concentration (IC50) in assay [1] was found to be 386 nM; in assay [2], 243 nM.
For `Cc1cccc(C)c1Nc1nn(C)c2nc(Nc3ccc4c(c3)CN(C)CC4)ncc12` [Example 17, N^3-(2,6-dimethylphenyl)-1-methyl-N^6-(2-methyl-1,2,3,4-tetrahydroisoquinoline-7-yl)-1H-pyrazolo[3,4-d]pyrimidine-3,6-diamine], in that order: 1.2 nM and 36 nM.
On the same counts, the results for `Cc1cccc(C)c1Nc1nn(C)c2nc(Nc3ccc4c(c3)COCC4)ncc12` [Example 18, N^3(2,6-dimethylphenyl)-N^6 (isochroman-7-yl)-1-methyl-1H-pyrazolo[3,4-d]pyrimidine-3,6-diamine] are 0.5 nM and 134 nM.
In turn, `Cc1cccc(C)c1Nc1n[nH]c2nc(Nc3ccc4c(c3)CNCC4)ncc12` [Example 19, N3-(2,6-dimethylphenyl)-N6-(1,2,3,4-tetrahydroisoquinoline-7-yl)-1H-pyrazolo[3,4-d]pyrimidine-3,6-diamine] came in with an IC50 in assay [2] of 49.4 nM.
Regarding `Cc1cccc(C)c1Nc1nn(C)c2nc(Nc3ccc4c(c3)C(C)NCC4)ncc12` (stereo not drawn) [Example 20, N^3-(2,6-dimethylphenyl)-1-methyl-N^6-(1-methyl-1,2,3,4-tetrahydroisoquinoline-7-yl)-1H-pyrazolo[3,4-d]pyrimidine-3,6-diamine], the IC50 in assay [1] came to 0.5 nM; in assay [2], 8.28 nM.
For `Cc1cccc(C)c1Nc1nn(C)c2nc(Nc3ccc4c(c3)CN(C(C)C)CC4)ncc12` [Example 21, N-(2,6-dimethylphenyl)-N^6 (2-isopropyl-1,2,3,4-tetrahydroisoquinoline-7-yl)-1-methyl-1H-pyrazolo[3,4-d]pyrimidine-3,6-diamine], in that order: 0.2 nM and 139 nM.
On the same counts, the results for `Cc1cccc(C)c1Nc1nn(C)c2nc(Nc3ccc4c(c3)CN(C(=O)CO)CC4)ncc12` [Example 22, 1-(7-(3-(2,6-dimethylphenylamino)-1-methyl-1H-pyrazolo[3,4-d]pyrimidine-6-ylamino)-3,4-dihydroisoquinoline-2(1H)-yl)-2-hydroxyethanone] are 0.4 nM and 46.4 nM.
Compound `Cc1cccc(C)c1Nc1nn(C(C)C)c2nc(Nc3ccc4c(c3)CNCC4)ncc12` [Example 27, N^3 (2,6-dimethylphenyl)-1-isopropyl-N6-(1,2,3,4-tetrahydroisoquinoline-7-yl)-1H-pyrazolo[3,4-d]pyrimidine-3,6-diamine] yielded a half-inhibitory concentration (IC50) in assay [2] of 35.4 nM.
Consider `Cc1cc(C)c(Cl)c(Nc2nn(C)c3nc(Nc4ccc5c(c4)CNCC5)ncc23)c1` [Example 38, N^3-(2-chloro-3,5-dimethylphenyl)-1-methyl-N^6-(1,2,3,4-tetrahydroisoquinoline-7-yl)-1H-pyrazolo[3,4-d]pyrimidine-3,6-diamine], for which the concentration for half-maximal inhibition (IC50) in assay [2] came out at 832 nM.
The same measure, in the same setting: the value for `Cn1nc(Nc2c(F)cccc2F)c2cnc(Nc3ccc4c(c3)CNCC4)nc21` [Example 42, N^3-(2,6-difluorophenyl)-1-methyl-N^6-(1,2,3,4-tetrahydroisoquinoline-7-yl)-1H-pyrazolo[3,4-d]pyrimidine-3,6-diamine] was 397 nM.
Compound `Cc1ccc(C)c(Nc2nn(C)c3nc(Nc4ccc5c(c4)CNCC5)ncc23)c1` [Example 45, N^3-(2,5-dimethylphenyl)-1-methyl-N^6 (1,2,3,4-tetrahydroisoquinoline-7-yl)-1H-pyrazolo[3,4-d]pyrimidine-3,6-diamine] came in with an IC50 in assay [2] of 720 nM.
Same read-out and setting: the value for `Cc1ccc(C(=O)Nc2cccc(C(F)(F)F)c2)cc1Nc1nn(C)c2nc(Nc3ccc4c(c3)CNCC4)ncc12` [Example 52, 4-methyl-3-(1-methyl-6-(1,2,3,4-tetrahydroisoquinoline-7-ylamino)-1H-pyrazolo[3,4-d]pyrimidine-3-ylamino)-N-(3-(trifluoromethyl)phenyl)benzamide] was 83.2 nM; that for `Cc1ccc(NC(=O)Nc2cccc(C(F)(F)F)c2)cc1Nc1nn(C)c2nc(Nc3ccc4c(c3)CNCC4)ncc12` [Example 57, 1-(4-methyl-3-((1-methyl-6-((1,2,3,4-tetrahydroisoquinoline-7-yl)amino)-1H-pyrazolo[3,4-d]pyrimidine-3-yl)amino)phenyl)-3-(3-(trifluoromethyl)phenyl)urea] was 221 nM.
Same read-out and setting: with `Cc1cccc(C)c1Nc1nn(C)c2nc(Nc3ccc4c(c3)CN(C)C(C)(C)C4)ncc12` [Example 66, N3-(2,6-dimethylphenyl)-1-methyl-N 6-(2,3,3-trimethyl-1,2,3,4-tetrahydroisoquinoline-7-yl)-1H-pyrazolo[3,4-d]pyrimidine-3,6-diamine] the figure was 28.5 nM; with `Cc1cccc(C)c1Nc1nn(C)c2nc(Nc3ccc4c(c3)C(C)N(C)C(C)(C)C4)ncc12` (stereo not drawn) [Example 67, N3-(2,6-dimethylphenyl)-1-methyl-N 6-(1,2,3,3-tetramethyl-1,2,3,4-tetrahydroisoquinoline-7-yl)-1H-pyrazolo[3,4-d]pyrimidine-3,6-diamine], 23.6 nM; with `CC(=O)N1Cc2cc(Nc3ncc4c(Nc5c(C)cccc5C)nn(C)c4n3)ccc2C(C)(C)C1` [Example 68, 1-(7-((3-((2,6-dimethylphenyl)amino)-1-methyl-1H-pyrazolo[3,4-d]pyrimidine-6-yl)amino)-4,4-dimethyl-3,4-dihydroisoquinoline-2(1H)-yl)ethane-1-one], 121 nM.
Same read-out and setting: with `CC(=O)N1CCc2ccc(Nc3ncc4c(Nc5c(C)cccc5C)nn(C)c4n3)cc2C1C(C)C` (stereo not drawn) [Example 70, 1-(7-((3-((2,6-dimethylphenyl)amino)-1-methyl-1H-pyrazolo[3,4-d]pyrimidine-6-yl)amino)-1-isopropyl-3,4-dihydroisoquinoline-2(1H)-yl) ethane-1-one] the figure was 24.5 nM; with `CC(=O)N1Cc2cc(Nc3ncc4c(Nc5c(C)cccc5C)nn(C)c4n3)ccc2CC1(C)C` [Example 71, 1-(7-((3-((2,6-dimethylphenyl)amino)-1-methyl-1H-pyrazolo[3,4-d]pyrimidine-6-yl)amino)-3,3-dimethyl-3,4-dihydroisoquinoline-2(1H)-yl)ethane-1-one], 114 nM.
In assay [2], `CC(=O)N1Cc2ccc(Nc3ncc4c(Nc5c(C)cccc5C)nn(C)c4n3)cc2C1` [Example 72, 1-(5-((3-((2,6-dimethylphenyl)amino)-1-methyl-1H-pyrazolo[3,4-d]pyrimidine-6-yl)amino)isoindolin-2-yl)ethane-1-one] yielded an IC50 of 266 nM.
The same measure, in the same setting: with `Cc1cccc(C)c1Nc1nn(C)c2nc(Nc3ccc4c(c3)CN(C)C4)ncc12` [Example 74, N3-(2,6-dimethylphenyl)-1-methyl-N 6-(2-methylisoindolin-5-yl)-1H-pyrazolo[3,4-d]pyrimidine-3,6-diamine] the figure was 358 nM; with `Cc1cccc(C)c1Nc1nn(C)c2nc(Nc3ccc4c(c3)CCCC4)ncc12` [Example 75, N3-(2,6-dimethylphenyl)-1-methyl-N 6-(5,6,7,8-tetrahydronaphthalen-2-yl)-1H-pyrazolo[3,4-d]pyrimidine-3,6-diamine], 667 nM; with `C=CC(=O)Nc1ccc(Nc2ncc3c(Nc4c(C)cccc4C)nn(C)c3n2)cc1` [Example 76, N-(4-((3-((2,6-dimethylphenyl)amino)-1-methyl-1H-pyrazolo[3,4-d]pyrimidine-6-yl)amino)phenyl)acrylamide], 75.2 nM.
The same measure, in the same setting: with `Cc1cccc(C)c1Nc1nn(C)c2nc(Nc3ccc4c(c3)C(=O)NCC4)ncc12` [Example 77, 7-((3-((2,6-dimethylphenyl)amino)-1-methyl-1H-pyrazolo[3,4-d]pyrimidine-6-yl)amino)-3,4-dihydroisoquinoline-1(2H)-one] the figure was 146 nM.
Take `COCCOc1cc(C)c(Nc2nn(C)c3nc(Nc4ccc5c(c4)C(C(C)C)NCC5)ncc23)c(C)c1` (stereo not drawn) [Example 78, N6-(1-isopropyl-1,2,3,4-tetrahydroisoquinoline-7-yl)-N 3-(4-(2-methoxyethoxy)-2,6-dimethylphenyl)-1-methyl-1H-pyrazolo[3,4-d]pyrimidine-3,6-diamine]: the IC50 in assay [2] came to 26.2 nM.
The same measure, in the same setting: with `COCCOc1cc(C)c(Nc2nn(C)c3nc(Nc4ccc5c(c4)C(C)(C)NCC5)ncc23)c(C)c1` [Example 79, N6-(1,1-dimethyl-1,2,3,4-tetrahydroisoquinoline-7-yl)-N 3-(4-(2-methoxyethoxy)-2,6-dimethylphenyl)-1-methyl-1H-pyrazolo[3,4-d]pyrimidine-3,6-diamine] the figure was 13 nM.
